Patent US20250368666A1, “INDAZOLE COMPOUNDS” (TYRA BIOSCIENCES, INC., priority 2022, published 2025)

Legend:
[1] = test system: KG-1 cell line (FGFR 1-fusion); assay: Cancer cell line cell viability assay (Cell Titer-Glo), 72 hr; type: cell-based; details: Homo sapiens, KG-1, KG-1 cell line (FGFR1-fusion)
Outline: (§1)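 Intracellular ATP was measured by Cell Titer-Glo 2.0 luminescence after cells were incubated with compound dilutions (top 3 μM, 4-fold, 9 doses). Values were expressed relative to DMSO-treated cells and IC50 was calculated from a variable-slope dose-response curve.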

[2] = test system: KATO-III cell line (FGFR2 amplification); assay: as above; type: cell-based; details: Homo sapiens, KATO III
Outline: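 5,000-20,000 cells/well o/n; cpd 9-pt 4x dil from 3 μM, n=3; 37° C/5% CO2; CTG 2.0 lumi; % DMSO ctrl; 4PL IC50.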

[3] = test system: RT112/84 cell line (FGFR3-fusion); assay: as above; type: cell-based; details: Homo sapiens, RT112/84, RT112/84 cell line (FGFR3-fusion)
Outline: as §1

FGFR1 = biological target: T1, FGFR1 (Homo sapiens, UniProt P11362); assay: Kinase binding assay (kinase-tagged T7 phage, affinity beads, qPCR), Kd; details: read-out: FGFR1 (Kd nM)
T1 construct: made in house; host or cells: E. coli (BL21-derived), T7 phage
T1 sequence (P11362 22-822): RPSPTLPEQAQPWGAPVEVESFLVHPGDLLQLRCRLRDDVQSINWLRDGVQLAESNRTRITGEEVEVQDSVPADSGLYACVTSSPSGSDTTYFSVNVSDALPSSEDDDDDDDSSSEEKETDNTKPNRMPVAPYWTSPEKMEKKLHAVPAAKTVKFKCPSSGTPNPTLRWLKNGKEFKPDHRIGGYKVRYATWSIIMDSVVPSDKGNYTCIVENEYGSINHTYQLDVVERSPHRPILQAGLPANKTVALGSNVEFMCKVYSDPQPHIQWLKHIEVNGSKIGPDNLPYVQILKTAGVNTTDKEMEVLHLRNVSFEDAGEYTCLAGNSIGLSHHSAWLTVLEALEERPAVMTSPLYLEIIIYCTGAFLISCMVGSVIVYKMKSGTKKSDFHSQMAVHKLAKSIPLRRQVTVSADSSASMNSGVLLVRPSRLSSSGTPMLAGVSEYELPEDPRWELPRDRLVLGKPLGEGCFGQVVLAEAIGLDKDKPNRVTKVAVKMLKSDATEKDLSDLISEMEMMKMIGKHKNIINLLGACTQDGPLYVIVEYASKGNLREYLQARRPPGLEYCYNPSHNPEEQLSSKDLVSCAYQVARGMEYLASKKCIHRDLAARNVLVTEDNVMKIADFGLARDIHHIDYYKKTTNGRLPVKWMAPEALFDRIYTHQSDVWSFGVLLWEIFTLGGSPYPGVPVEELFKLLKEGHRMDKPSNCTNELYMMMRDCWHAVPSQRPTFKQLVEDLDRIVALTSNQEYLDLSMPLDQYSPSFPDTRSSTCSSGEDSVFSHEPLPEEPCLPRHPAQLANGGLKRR
Outline: (§2)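 T7 phage displaying each kinase, grown in a BL21-derived E. coli host at 32° C until lysis, competed with test compound for biotinylated ligand immobilised on streptavidin beads. Bead-bound kinase was eluted and quantified by qPCR. Kd came from an 11-point 3-fold dilution series fitted to the Hill equation with slope fixed at −1.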

FGFR4 = biological target: T2, FGFR4 (Homo sapiens, UniProt P22455); assay: as above; details: read-out: FGFR4 (Kd nM)
T2 construct: made in house; host or cells: E. coli (BL21-derived), T7 phage
T2 sequence (P22455 22-802): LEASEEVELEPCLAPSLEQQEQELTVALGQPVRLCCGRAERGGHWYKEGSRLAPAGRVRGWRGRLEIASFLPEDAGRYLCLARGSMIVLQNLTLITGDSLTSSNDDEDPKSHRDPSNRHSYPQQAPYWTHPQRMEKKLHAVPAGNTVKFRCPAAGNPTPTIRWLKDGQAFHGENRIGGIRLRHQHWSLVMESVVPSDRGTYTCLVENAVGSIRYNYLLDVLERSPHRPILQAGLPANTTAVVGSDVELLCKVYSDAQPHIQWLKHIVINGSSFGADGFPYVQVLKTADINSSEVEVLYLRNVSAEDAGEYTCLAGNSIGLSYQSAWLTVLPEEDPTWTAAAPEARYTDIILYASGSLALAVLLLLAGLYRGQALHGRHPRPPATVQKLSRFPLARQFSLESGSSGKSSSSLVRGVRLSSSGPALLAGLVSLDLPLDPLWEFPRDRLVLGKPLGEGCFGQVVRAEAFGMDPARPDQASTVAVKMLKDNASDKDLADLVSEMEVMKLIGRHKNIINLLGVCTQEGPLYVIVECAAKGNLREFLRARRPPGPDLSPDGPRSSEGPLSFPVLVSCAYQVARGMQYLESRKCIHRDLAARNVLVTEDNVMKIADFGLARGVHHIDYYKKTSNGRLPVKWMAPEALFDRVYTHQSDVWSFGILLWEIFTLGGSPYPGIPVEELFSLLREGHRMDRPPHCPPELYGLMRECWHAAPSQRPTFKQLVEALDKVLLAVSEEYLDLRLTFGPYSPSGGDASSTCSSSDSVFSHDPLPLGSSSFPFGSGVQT
Outline: as §2

FGFR3 = biological target: T3, FGFR3 (Homo sapiens, UniProt P22607); assay: as above; details: read-out: FGFR3 (Kd nM)
T3 construct: made in house; host or cells: E. coli (BL21-derived), T7 phage
T3 sequence (P22607 23-806): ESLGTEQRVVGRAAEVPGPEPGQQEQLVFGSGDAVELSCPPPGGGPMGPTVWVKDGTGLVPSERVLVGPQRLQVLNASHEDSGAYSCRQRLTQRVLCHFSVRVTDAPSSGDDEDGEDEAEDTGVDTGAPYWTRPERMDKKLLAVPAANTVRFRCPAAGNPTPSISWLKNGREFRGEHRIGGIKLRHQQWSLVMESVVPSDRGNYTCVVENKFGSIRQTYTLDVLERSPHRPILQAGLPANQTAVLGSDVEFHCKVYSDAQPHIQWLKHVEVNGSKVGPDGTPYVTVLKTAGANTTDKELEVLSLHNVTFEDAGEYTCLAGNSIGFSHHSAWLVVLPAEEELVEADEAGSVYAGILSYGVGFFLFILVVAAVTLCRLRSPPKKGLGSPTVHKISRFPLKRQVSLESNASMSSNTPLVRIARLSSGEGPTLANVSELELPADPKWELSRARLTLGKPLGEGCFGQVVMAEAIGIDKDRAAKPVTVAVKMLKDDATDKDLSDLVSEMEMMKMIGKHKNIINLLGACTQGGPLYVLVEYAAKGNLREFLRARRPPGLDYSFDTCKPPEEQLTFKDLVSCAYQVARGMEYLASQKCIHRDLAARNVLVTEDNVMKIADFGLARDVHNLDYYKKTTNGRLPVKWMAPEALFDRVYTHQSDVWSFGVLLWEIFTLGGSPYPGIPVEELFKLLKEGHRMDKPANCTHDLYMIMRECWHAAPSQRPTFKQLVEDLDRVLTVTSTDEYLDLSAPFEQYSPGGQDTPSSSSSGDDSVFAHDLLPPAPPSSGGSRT
Outline: as §2

FGFR2 = biological target: T4, FGFR2 (Homo sapiens, UniProt P21802); assay: as above; details: read-out: FGFR2 (Kd nM)
T4 construct: made in house; host or cells: E. coli (BL21-derived), T7 phage
T4 sequence (P21802 22-821): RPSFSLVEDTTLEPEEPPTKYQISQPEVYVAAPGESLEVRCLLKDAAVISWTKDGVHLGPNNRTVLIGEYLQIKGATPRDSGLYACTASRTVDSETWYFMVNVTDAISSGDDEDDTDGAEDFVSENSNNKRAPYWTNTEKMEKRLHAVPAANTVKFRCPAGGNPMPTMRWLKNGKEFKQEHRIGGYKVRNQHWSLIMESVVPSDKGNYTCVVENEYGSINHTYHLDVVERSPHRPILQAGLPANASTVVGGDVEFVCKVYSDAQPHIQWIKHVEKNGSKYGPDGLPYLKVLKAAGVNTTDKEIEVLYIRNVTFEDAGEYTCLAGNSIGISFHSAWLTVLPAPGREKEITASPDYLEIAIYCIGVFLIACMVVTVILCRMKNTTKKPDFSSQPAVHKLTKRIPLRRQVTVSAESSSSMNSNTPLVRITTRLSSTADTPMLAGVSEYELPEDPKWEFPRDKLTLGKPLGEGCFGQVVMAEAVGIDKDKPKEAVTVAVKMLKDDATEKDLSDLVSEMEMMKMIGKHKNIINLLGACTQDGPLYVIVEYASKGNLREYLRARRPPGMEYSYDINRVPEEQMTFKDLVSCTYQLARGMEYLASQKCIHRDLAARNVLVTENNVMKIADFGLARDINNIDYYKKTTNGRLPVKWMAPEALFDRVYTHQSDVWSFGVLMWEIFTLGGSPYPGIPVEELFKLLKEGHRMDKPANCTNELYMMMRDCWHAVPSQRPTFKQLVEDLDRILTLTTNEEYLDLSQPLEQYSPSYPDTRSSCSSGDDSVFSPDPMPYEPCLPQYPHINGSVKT
Outline: as §2

FGFR3 (V555M) = biological target: T5, FGFR3 (V555M) (Homo sapiens, UniProt P22607, V555M); assay: as above; details: V555M mutant; read-out: FGFR3 (V555M) (Kd nM)
T5 construct: made in house; host or cells: E. coli (BL21-derived), T7 phage
T5 sequence (P22607 23-806 V555M): as the sequence (P22607 23-806) above, with V533M counted along it
Outline: as §2

Structure (SMILES) | IC50 [1] [µM] | IC50 [2] [µM] | IC50 [3] [µM] | Kd (FGFR1) [nM] | Kd (FGFR4) [nM] | Kd (FGFR3) [nM] | Kd (FGFR2) [nM] | Kd (FGFR3 (V555M)) [nM]
C[C@@H](Oc1cc2c(-c3cnc(N4CC(C)(NCC5CC5)C4)c(F)c3)n[nH]c2cc1F)c1c(Cl)cncc1Cl [Example 132, N-(cyclopropylmethyl)-1-[5-[5-[(1R)-1-(3,5-dichloro-4-pyridyl)ethoxy]-6-fluoro-1H-indazol-3-yl]-3-fluoro-2-pyridyl]-3-methyl-azetidin-3-amine] | 0.05 to 0.2 | 0.05 to 0.2 | 0.0001 to 0.05 | 1 to 50 | 1 to 50 | 1 to 50 | 1 to 50 | 1 to 50
CNC1(C)CN(c2ncc(-c3n[nH]c4ccc(O[C@H](C)c5c(Cl)cncc5Cl)cc34)cc2F)C1 [Example 171, (R)-1-(5-(5-(1-(3,5-dichloropyridin-4-yl)ethoxy)-1H-indazol-3-yl)-3-fluoropyridin-2-yl)-N,3-dimethylazetidin-3-amine] | 0.0001 to 0.05 | 0.0001 to 0.05 | 0.0001 to 0.05 | 1 to 50 | 1 to 50 | 1 to 50 | 1 to 50 | 1 to 50
C[C@H](O)CNC1(C)CN(c2ccc(-c3n[nH]c4ccc(O[C@H](C)c5c(Cl)cncc5Cl)cc34)cn2)C1 [Example 90, (S)-1-((1-(5-(5-((R)-1-(3,5-dichloropyridin-4-yl)ethoxy)-1H-indazol-3-yl)pyridin-2-yl)-3-methylazetidin-3-yl)amino)propan-2-ol] | 0.0001 to 0.05 | 0.0001 to 0.05 | 0.0001 to 0.05 | 1 to 50 | 1 to 50 | 1 to 50 | 1 to 50 | 1 to 50
COc1cc2[nH]nc(-c3cnc(N4CC(C)(NCC5CC5)C4)c(F)c3)c2cc1O[C@H](C)c1c(Cl)cncc1Cl [Example 126, (R)-N-(cyclopropylmethyl)-1-(5-(5-(1-(3,5-dichloropyridin-4-yl)ethoxy)-6-methoxy-1H-indazol-3-yl)-3-fluoropyridin-2-yl)-3-methylazetidin-3-amine] | 0.0001 to 0.05 | 0.0001 to 0.05 | 0.0001 to 0.05 | 1 to 50 | 1 to 50 | 1 to 50 | 1 to 50 | 1 to 50
COc1cc2[nH]nc(-c3cnc(N4CC(C)(NCC5(O)CC5)C4)c(F)c3)c2cc1O[C@H](C)c1c(Cl)cncc1Cl [Example 119, (R)-1-(((1-(5-(5-(1-(3,5-dichloropyridin-4-yl)ethoxy)-6-methoxy-1H-indazol-3-yl)-3-fluoropyridin-2-yl)-3-methylazetidin-3-yl)amino)methyl)cyclo-propan-1-ol] | 0.0001 to 0.05 | 0.0001 to 0.05 | 0.0001 to 0.05 | 1 to 50 | 1 to 50 | 1 to 50 | 1 to 50 | 1 to 50
C[C@@H](Oc1ccc2[nH]nc(-c3ccc(N4CC(C)(NCC(C)(C)O)C4)nc3)c2c1)c1c(Cl)cncc1Cl [Example 115, (R)-1-((1-(5-(5-(1-(3,5-dichloropyridin-4-yl)ethoxy)-1H-indazol-3-yl)pyridin-2-yl)-3-methylazetidin-3-yl)amino)-2-methylpropan-2-ol] | 0.0001 to 0.05 | 0.0001 to 0.05 | 0.0001 to 0.05 | 1 to 50 | 1 to 50 | 1 to 50 | 1 to 50 | 1 to 50
C[C@@H](Oc1ccc2[nH]nc(-c3cnc(N4CC(C)(NCC(C)(C)O)C4)c(F)c3)c2c1F)c1c(Cl)cncc1Cl [Example 170, (R)-1-((1-(5-(5-(1-(3,5-dichloro-pyridin-4-yl)ethoxy)-4-fluoro-1H-indazol-3-yl)-3-fluoropyridin-2-yl)-3-methylazetidin-3-yl)amino)-2-methylpropan-2-ol] | > 1 | > 1 | > 1 | > 1000 | 300 to 1000 | 50 to 300 | > 1000 | 50 to 300
CNC1(C)CN(c2ccc(-c3n[nH]c4cc(F)c(O[C@H](C)c5c(Cl)cncc5Cl)cc34)cn2)C1 [Example 59, 1-[5-[5-[(1R)-1-(3,5-dichloro-4-pyridyl)ethoxy]-6-fluoro-1H-indazol-3-yl]-2-pyridyl]-N,3-dimethyl-azetidin-3-amine] | 0.2 to 1 | 0.2 to 1 | 0.0001 to 0.05 | 1 to 50 | 1 to 50 | 1 to 50 | 1 to 50 | 1 to 50
C[C@@H](Oc1cc2c(-c3ccc(N4CC(C)(CP(C)(C)=O)C4)nc3)n[nH]c2cc1F)c1c(Cl)cncc1Cl [Example 67, (R)-((1-(5-(5-(1-(3,5-dichloropyridin-4-yl)ethoxy)-6-fluoro-1H-indazol-3-yl)pyridin-2-yl)-3-methylazetidin-3-yl)methyl)dimethylphos-phine oxide] | 0.2 to 1 | 0.0001 to 0.05 | 0.0001 to 0.05 | 1 to 50 | 1 to 50 | 1 to 50 | 1 to 50 | 1 to 50
C[C@@H](Oc1ccc2[nH]nc(-c3ccc(N4CC(C)(NCCO)C4)nc3)c2c1)c1c(Cl)cncc1Cl [Example 89, (R)-2-((1-(5-(5-(1-(3,5-dichloropyridin-4-yl)ethoxy)-1H-indazol-3-yl)pyridin-2-yl)-3-methylazetidin-3-yl)amino)ethan-1-ol] | 0.0001 to 0.05 | 0.0001 to 0.05 | 0.0001 to 0.05 | 1 to 50 | 1 to 50 | 1 to 50 | 1 to 50 | 1 to 50
Cc1ncc(Cl)c([C@@H](C)Oc2ccc3[nH]nc(-c4cnc(N5CC(C)(NCC6CC6)C5)c(F)c4)c3c2)c1Cl [Example 209, N-(cyclo-propylmethyl)-1-[5-[5-[(1R)-1-(3,5-dichloro-2-methyl-4-pyridyl)ethoxy]-1H-indazol-3-yl]-3-fluoro-2-pyridyl]-3-methyl-azetidin-3-amine] | 0.05 to 0.2 | 0.05 to 0.2 | 0.05 to 0.2 | 1 to 50 | 1 to 50 | 1 to 50 | 1 to 50 | 1 to 50
CC(C)NC1(C)CN(c2ncc(-c3n[nH]c4cc(F)c(O[C@H](C)c5c(Cl)cncc5Cl)cc34)cc2F)C1 [Example 127, (R)-1-(5-(5-(1-(3,5-dichloropyridin-4-yl)ethoxy)-6-fluoro-1H-indazol-3-yl)-3-fluoropyridin-2-yl)-N-isopropyl-3-methylazetidin-3-amine] | 0.05 to 0.2 | 0.05 to 0.2 | 0.0001 to 0.05 | 1 to 50 | 1 to 50 | 1 to 50 | 1 to 50 | 1 to 50
C[C@@H](Oc1ccc2[nH]nc(-c3cnc(N4CC(C)(NCCO)C4)c(F)c3)c2c1)c1c(Cl)cncc1Cl [Example 114, (R)-2-((1-(5-(5-(1-(3,5-dichloropyridin-4-yl)ethoxy)-1H-indazol-3-yl)-3-fluoropyridin-2-yl)-3-methylazetidin-3-yl)amino)ethan-1-ol] | 0.0001 to 0.05 | 0.0001 to 0.05 | 0.0001 to 0.05 | 1 to 50 | 1 to 50 | 1 to 50 | 1 to 50 | 1 to 50
C[C@@H](Oc1ccc2[nH]nc(-c3cnc(N4CC(C)(O)C4)c(F)c3)c2c1)c1c(Cl)cncc1Cl [Example 154, 1-[5-[5-[(1R)-1-(3,5-dichloro-4-pyridyl)ethoxy]-1H-indazol-3-yl]-3-fluoro-2-pyridyl]-3-methyl-azetidin-3-ol] | 0.05 to 0.2 | 0.05 to 0.2 | 0.0001 to 0.05 | 1 to 50 | 1 to 50 | 1 to 50 | 1 to 50 | 1 to 50
C[C@@H](Oc1ccc2[nH]nc(-c3cnc(N4CC(C)(N5C[C@@H]6C[C@H]5CO6)C4)c(F)c3)c2c1)c1c(Cl)cncc1Cl [Example 218, (1S,4S)-5-(1-(5-(5-((R)-1-(3,5-dichloropyridin-4-yl)ethoxy)-1H-indazol-3-yl)-3-fluoropyridin-2-yl)-3-methylazetidin-3-yl)-2-oxa-5-aza-bicyclo[2.2.1]hep-tane] | 0.0001 to 0.05 | 0.0001 to 0.05 | 0.0001 to 0.05 | 1 to 50 | 1 to 50 | 1 to 50 | 1 to 50 | 1 to 50
C[C@@H](Oc1ccc2[nH]nc(-c3ccc(N4CC(C)(CN(C)S(C)(=O)=O)C4)nc3)c2c1)c1c(Cl)cncc1Cl [Example 74, (R)-N-((1-(5-(5-(1-(3,5-dichloropyridin-4-yl)ethoxy)-1H-indazol-3-yl)pyridin-2-yl)-3-methylazetidin-3-yl)methyl)-N-methylmethanesulfona-mide] | 0.05 to 0.2 | 0.0001 to 0.05 | 0.0001 to 0.05 | 1 to 50 | 1 to 50 | 1 to 50 | 1 to 50 | 1 to 50
